Results as given in paper PMC8963254, “Effects of Lysine N-ζ-Methylation in Ultrashort Tetrabasic Lipopeptides (UTBLPs) on the Potentiation of Rifampicin, Novobiocin, and Niclosamide in Gram-Negative Bacteria” (Antibiotics, 2022).
Where two headings read alike, the source gives them in different places. Non-standard residues stand in square brackets, D forms with d. Residues, ends and D or L forms follow the SMILES beside them. *: point of attachment. Lys(Me3) = C[N+](C)(C)CCCC[C@H](N)C(=O)O; Lys(Me2) = CN(C)CCCC[C@H](N)C(=O)O; Octanoyl = CCCCCCCC(=O)*

Columns and labels:
MRSE 61589 [1] = type: cell-based, Staphylococcus epidermidis; settings: for Interpretation: UTBLP + chloramphenicol; for MICUTBLP: UTBLP alone, plate with chloramphenicol; for MICUTBLP [MICcombo]: UTBLP in combination with chloramphenicol; for MICchloramphenicol [MICcombo]: chloramphenicol in combination with the UTBLP
Method in brief: (§1)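 Values derive from a two-agent checkerboard with an 18 h, 37 °C incubation. FICI cut-offs: ≤0.5 synergy, 0.5–4 additive, >4 antagonism.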

MSSE 81388 [2] = type: cell-based, Staphylococcus epidermidis; settings: for Interpretation: UTBLP + chloramphenicol; for MICUTBLP: UTBLP alone, plate with chloramphenicol; for MICUTBLP [MICcombo]: UTBLP in combination with chloramphenicol; for MICchloramphenicol [MICcombo]: chloramphenicol in combination with the UTBLP
Method in brief: as §1

[3] = system: P. aeruginosa PA262-101856; assay: microbe, parasite or virus in culture; type: cell-based, Pseudomonas aeruginosa; settings: PA262-101856, 18 h
Method in brief: (§2)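 MIC was determined by broth microdilution following CLSI guidelines. Serially varied compound concentrations were incubated with bacterial inoculum at 5 × 10^5 CFU/mL (final) for 18 h at 37 °C. Growth was scored as turbidity by absorbance at 590 nm.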

[4] = system: P. aeruginosa PA259-96196; assay: microbe, parasite or virus in culture; type: cell-based, Pseudomonas aeruginosa; settings: PA259-96196, 18 h
Method in brief: as §2

E. faecium ATCC 27270 = type: cell-based, Enterococcus faecium; settings: for Interpretation: UTBLP + chloramphenicol; for MICUTBLP: UTBLP alone, plate with chloramphenicol; for MICUTBLP [MICcombo]: UTBLP in combination with chloramphenicol; for MICchloramphenicol [MICcombo]: chloramphenicol in combination with the UTBLP
Method in brief: as §1

MRSE 61589 [5] = type: cell-based, Staphylococcus epidermidis; settings: 61589, 18 h
Experimental: (§3) The in vitro antibacterial activity of the UTBLPs was assessed against wild-type and clinically isolated bacterial strains. To obtain the MIC of the compounds, the microbroth dilution susceptibility assay was performed according to the Clinical and Laboratory Standards Institute (CLSI, Wayne, PA, USA) guidelines and as previously described. Briefly, the compounds at varying concentrations were incubated with bacterial inoculum (5 × 10^5 CFU/mL final concentration) at 37 °C for 18 h. Growth in the form of turbidity was confirmed using an EMax Plus microplate reader (Molecular Devices, San Jose, CA, USA) at 590 nm.

MSSE 81388 [6] = type: cell-based, Staphylococcus epidermidis; settings: 18 h
Experimental: as §3

E. coli 94474 = assay: microbe, parasite or virus in culture; type: cell-based, Escherichia coli; settings: 94474, 18 h
Method in brief: as §2

E. coli 94393 [7] = assay: microbe, parasite or virus in culture; type: cell-based, Escherichia coli; settings: 94393, 18 h
Method in brief: as §2

E. coli 94393 [8] = type: cell-based, Escherichia coli; settings: for MICUTBLP: UTBLP alone
Method in brief: as §1

E. coli ATCC 25922 [9] = type: cell-based, Escherichia coli; settings: for MICUTBLP: UTBLP alone
Method in brief: as §1

P. aeruginosa PAO1 = type: cell-based, Pseudomonas aeruginosa; settings: PAO1, 18 h
Experimental: as §3

K. pneumoniae 113250 = assay: microbe, parasite or virus in culture; type: cell-based, Klebsiella pneumoniae; settings: 113250, 18 h
Method in brief: as §2

S. aureus ATCC 29213 = type: cell-based, Staphylococcus aureus; settings: ATCC 29213, 18 h
Experimental: as §3

MRSA ATCC 33592 = type: cell-based, Staphylococcus aureus; settings: ATCC 33592, 18 h
Experimental: as §3

E. faecalis ATCC 29212 = type: cell-based, Enterococcus faecalis; settings: for Interpretation: UTBLP + chloramphenicol; for MICUTBLP: UTBLP alone, plate with chloramphenicol; for MICUTBLP [MICcombo]: UTBLP in combination with chloramphenicol; for MICchloramphenicol [MICcombo]: chloramphenicol in combination with the UTBLP
Method in brief: as §1

E. coli ATCC 25922 [10] = type: cell-based, Escherichia coli; settings: ATCC 25922, 18 h
Experimental: as §3

E. cloacae 118564 = assay: microbe, parasite or virus in culture; type: cell-based, Enterobacter cloacae; settings: 118564, 18 h
Method in brief: as §2

[11] = UTBLP in combination with novobiocin
[12] = UTBLP in combination with rifampicin
[13] = novobiocin in combination with the UTBLP
[14] = rifampicin in combination with the UTBLP
[15] = UTBLP in combination with chloramphenicol
[16] = UTBLP in combination with niclosamide
[17] = chloramphenicol in combination with the UTBLP
[18] = niclosamide in combination with the UTBLP

CCCCCCCC(=O)NCCCC[C@H](NC(=O)CCCCCCC)C(=O)N[C@@H](CCCCN(C)C)C(=O)N[C@@H](CCCCN(C)C)C(=O)N[C@@H](CCCCN(C)C)C(=O)N[C@@H](CCCCN(C)C)C(N)=O [UTBLP 7] (Octanoyl-K(Octanoyl)[Lys(Me2)][Lys(Me2)][Lys(Me2)][Lys(Me2)]-NH2)
0.5 µg/mL: MICantibiotic [MICcombo] (E. coli 94393 [8]; [14]) | MICantibiotic [MICcombo] (E. coli ATCC 25922 [9]; [17])
128 µg/mL: MICUTBLP (E. faecium ATCC 27270) | MIC (E. coli 94474)
> 128 µg/mL: MIC [3] | MIC [4] | MIC (K. pneumoniae 113250) | MIC (E. cloacae 118564)
32 µg/mL: MICUTBLP (MRSE 61589 [1]) | MICUTBLP (MSSE 81388 [2]) | MIC (MRSE 61589 [5]) | MIC (MSSE 81388 [6])
0.25 µg/mL: MICUTBLP [MICcombo] (MRSE 61589 [1]) | MICUTBLP [MICcombo] (MSSE 81388 [2]) | MICUTBLP [MICcombo] (E. faecium ATCC 27270)
64 µg/mL: MIC (E. coli 94393 [7]) | MICUTBLP (E. coli 94393 [8]; plate with novobiocin) | MICUTBLP (E. coli 94393 [8]; plate with rifampicin) | MICUTBLP (E. coli ATCC 25922 [9]; plate with chloramphenicol) | MICUTBLP (E. coli ATCC 25922 [9]; plate with niclosamide) | MICUTBLP (E. coli ATCC 25922 [9]; plate with novobiocin) | MICUTBLP (E. coli ATCC 25922 [9]; plate with rifampicin) | MICUTBLP (E. faecalis ATCC 29212) | MIC (E. coli ATCC 25922 [10])
1 µg/mL: MICantibiotic [MICcombo] (E. coli ATCC 25922 [9]; [18])
0.125 µg/mL: MICantibiotic [MICcombo] (E. coli ATCC 25922 [9]; [14])
>128 µg/mL: MIC (P. aeruginosa PAO1) | MIC (S. aureus ATCC 29213) | MIC (MRSA ATCC 33592)
Synergy (FICI ≤ 0.5 is synergistic): Interpretation (E. coli 94393 [8]; UTBLP + novobiocin) | Interpretation (E. coli 94393 [8]; UTBLP + rifampicin) | Interpretation (E. coli ATCC 25922 [9]; UTBLP + chloramphenicol) | Interpretation (E. coli ATCC 25922 [9]; UTBLP + niclosamide) | Interpretation (E. coli ATCC 25922 [9]; UTBLP + novobiocin) | Interpretation (E. coli ATCC 25922 [9]; UTBLP + rifampicin)
2 µg/mL: MICantibiotic [MICcombo] (E. coli 94393 [8]; [13]) | MICUTBLP [MICcombo] (E. coli ATCC 25922 [9]; [11]) | MICantibiotic [MICcombo] (E. coli ATCC 25922 [9]; [13])
16 µg/mL: MICUTBLP [MICcombo] (E. coli ATCC 25922 [9]; [15])
Additive (0.5 < x ≤ 4 is additive): Interpretation (MRSE 61589 [1]) | Interpretation (MSSE 81388 [2]) | Interpretation (E. faecium ATCC 27270) | Interpretation (E. faecalis ATCC 29212)
8 µg/mL: MICchloramphenicol [MICcombo] (MRSE 61589 [1]) | MICUTBLP [MICcombo] (E. coli 94393 [8]; [12]) | MICUTBLP [MICcombo] (E. coli ATCC 25922 [9]; [12]) | MICUTBLP [MICcombo] (E. faecalis ATCC 29212)
4 µg/mL: MICchloramphenicol [MICcombo] (MSSE 81388 [2]) | MICchloramphenicol [MICcombo] (E. faecium ATCC 27270) | MICUTBLP [MICcombo] (E. coli 94393 [8]; [11]) | MICUTBLP [MICcombo] (E. coli ATCC 25922 [9]; [16]) | MICchloramphenicol [MICcombo] (E. faecalis ATCC 29212)

CCCCCCCC(=O)NCCCC[C@H](NC(=O)CCCCCCC)C(=O)N[C@@H](CCCC[N+](C)(C)C)C(=O)N[C@@H](CCCC[N+](C)(C)C)C(=O)N[C@@H](CCCC[N+](C)(C)C)C(=O)N[C@@H](CCCC[N+](C)(C)C)C(N)=O [UTBLP 8] (Octanoyl-K(Octanoyl)[Lys(Me3)][Lys(Me3)][Lys(Me3)][Lys(Me3)]-NH2)
> 128 µg/mL: MIC [3] | MIC [4] | MICUTBLP (E. faecium ATCC 27270) | MIC (E. coli 94474) | MICUTBLP (E. coli ATCC 25922 [9]; plate with chloramphenicol) | MICUTBLP (E. coli ATCC 25922 [9]; plate with niclosamide) | MICUTBLP (E. coli ATCC 25922 [9]; plate with novobiocin) | MICUTBLP (E. coli ATCC 25922 [9]; plate with rifampicin) | MIC (K. pneumoniae 113250) | MIC (E. cloacae 118564)
1 µg/mL: MICantibiotic [MICcombo] (E. coli ATCC 25922 [9]; [14])
Synergy (FICI ≤ 0.5 is synergistic): Interpretation (E. coli 94393 [8]; UTBLP + novobiocin) | Interpretation (E. coli ATCC 25922 [9]; UTBLP + chloramphenicol) | Interpretation (E. coli ATCC 25922 [9]; UTBLP + niclosamide) | Interpretation (E. coli ATCC 25922 [9]; UTBLP + novobiocin)
16 µg/mL: MICUTBLP [MICcombo] (E. coli 94393 [8]; [11]) | MICUTBLP [MICcombo] (E. coli 94393 [8]; [12]) | MICantibiotic [MICcombo] (E. coli 94393 [8]; [13]) | MICUTBLP [MICcombo] (E. coli ATCC 25922 [9]; [11]) | MICUTBLP [MICcombo] (E. coli ATCC 25922 [9]; [12]) | MICUTBLP [MICcombo] (E. faecalis ATCC 29212)
2 µg/mL: MICantibiotic [MICcombo] (E. coli ATCC 25922 [9]; [17]) | MICantibiotic [MICcombo] (E. coli ATCC 25922 [9]; [13])
Additive (0.5 < x ≤ 4 is additive): Interpretation (MRSE 61589 [1]) | Interpretation (MSSE 81388 [2]) | Interpretation (E. faecium ATCC 27270) | Interpretation (E. coli 94393 [8]; UTBLP + rifampicin) | Interpretation (E. coli ATCC 25922 [9]; UTBLP + rifampicin) | Interpretation (E. faecalis ATCC 29212)
0.25 µg/mL: MICUTBLP [MICcombo] (MRSE 61589 [1]) | MICUTBLP [MICcombo] (MSSE 81388 [2]) | MICUTBLP [MICcombo] (E. faecium ATCC 27270)
>128 µg/mL: MIC (P. aeruginosa PAO1) | MIC (S. aureus ATCC 29213) | MIC (MRSA ATCC 33592) | MIC (E. coli ATCC 25922 [10])
128 µg/mL: MICUTBLP (MRSE 61589 [1]) | MICUTBLP (MSSE 81388 [2]) | MIC (MRSE 61589 [5]) | MIC (MSSE 81388 [6]) | MIC (E. coli 94393 [7]) | MICUTBLP (E. coli 94393 [8]; plate with novobiocin) | MICUTBLP (E. coli 94393 [8]; plate with rifampicin) | MICUTBLP (E. faecalis ATCC 29212)
8 µg/mL: MICchloramphenicol [MICcombo] (MRSE 61589 [1]) | MICUTBLP [MICcombo] (E. coli ATCC 25922 [9]; [15]) | MICUTBLP [MICcombo] (E. coli ATCC 25922 [9]; [16]) | MICantibiotic [MICcombo] (E. coli ATCC 25922 [9]; [18])
4 µg/mL: MICchloramphenicol [MICcombo] (MSSE 81388 [2]) | MICchloramphenicol [MICcombo] (E. faecium ATCC 27270) | MICchloramphenicol [MICcombo] (E. faecalis ATCC 29212)
